Data set [1] deals with CHO cells expressing TRPV1 (CHO-rTRPV1) (Rattus norvegicus, UniProt O35433). Put plainly: Intracellular Ca2+ imaging, agonist and antagonist added simultaneously. The data set is classed as cell-based. The protocol:
The stable CHO cell clone expressing rTRPV1 (Tet-Off) was the generous gift of James E. Krause and Daniel N. Cortwright (Neurogen Corp., Branford, Conn., USA). These cells were cultured in maintaining medium (HAM F-12 supplemented with 10% FBS (USA sourced, Atlanta biologicals, Lawrenceville, Ga., USA), 25 mM HEPES, pH 7.5, 250 μg/ml geneticin (F-12, HEPES, and geneticin are from Invitrogen, Carlsbad, Calif., USA) and 1 mg/L tetracycline (Calbiochem, La Jolla, Calif., USA).
CHO-rTRPV1 cells were seeded on 25 mm round glass coverslips in 35×10 mm tissue culture dishes in maintaining medium. After 24 hours, the medium was replaced with inducing medium (maintaining medium without geneticin and tetracycline, but containing 1 mM sodium butyrate) to induce TRPV1 expression. Experiments were performed approximately 24 hours after induction. For fura-2 AM (Invitrogen, Carlsbad, Calif., USA) loading, the cells were incubated in DPBS containing calcium and magnesium (Invitrogen, Carlsbad, Calif., USA), 0.5 mg/ml BSA (Sigma, St. Louis, Mo., USA), and 5 μM Fura-2 AM for 2 hours in the dark at 20° C. After 2 hours, the loaded cells were washed 2× with DPBS without calcium and magnesium and immersed in maintaining medium until the measurements. The measurements were carried out in DPBS containing calcium and magnesium, plus 0.5 mg/ml BSA. The fluorescence of individual cells treated simultaneously with a single dose of agonist and antagonist was measured with an InCyt Im2 fluorescence imaging system (Intracellular Imaging, Cincinnati, Ohio, USA). The cells within the selected field were illuminated alternately at 340 and 380 nm. Emitted light >510 nm was measured. To determine the approximate intracellular Ca^2+ concentrations, the system was calibrated using a fura-2 calibration kit (Invitrogen, Carlsbad, Calif., USA). Data were analyzed with the Incyt software and tabulated with Microsoft Excel spreadsheet and graphed with Origin 6.0 (OriginLab Corp., Northhampton, Mass., USA) software.
The TRPV1 agonist and antagonist were added simultaneously to fura-2 AM loaded CHO-rTRPV1 cells after 90 seconds from the beginning of the measurement (baseline) and monitored continuously for an additional 10 minutes. Inhibition values were compared to the maximally effective dose of capsaicin (300 nM) in the same experiment (see FIGS. 2A-2E) or to the indicated concentration of capsaicin (see FIGS. 3A-3E). Experiments were performed three times, each on different days with approximately 30-49 cells measured.

In a further data set the test system is subjects. The conditions noted are these: cited from earlier work.

“Also recorded” adds a separate entry of the source. Where two headings read alike, the source gives them in different places.

CHO cells expressing TRPV1 (CHO-rTRPV1), sequence (O35433 whole entry): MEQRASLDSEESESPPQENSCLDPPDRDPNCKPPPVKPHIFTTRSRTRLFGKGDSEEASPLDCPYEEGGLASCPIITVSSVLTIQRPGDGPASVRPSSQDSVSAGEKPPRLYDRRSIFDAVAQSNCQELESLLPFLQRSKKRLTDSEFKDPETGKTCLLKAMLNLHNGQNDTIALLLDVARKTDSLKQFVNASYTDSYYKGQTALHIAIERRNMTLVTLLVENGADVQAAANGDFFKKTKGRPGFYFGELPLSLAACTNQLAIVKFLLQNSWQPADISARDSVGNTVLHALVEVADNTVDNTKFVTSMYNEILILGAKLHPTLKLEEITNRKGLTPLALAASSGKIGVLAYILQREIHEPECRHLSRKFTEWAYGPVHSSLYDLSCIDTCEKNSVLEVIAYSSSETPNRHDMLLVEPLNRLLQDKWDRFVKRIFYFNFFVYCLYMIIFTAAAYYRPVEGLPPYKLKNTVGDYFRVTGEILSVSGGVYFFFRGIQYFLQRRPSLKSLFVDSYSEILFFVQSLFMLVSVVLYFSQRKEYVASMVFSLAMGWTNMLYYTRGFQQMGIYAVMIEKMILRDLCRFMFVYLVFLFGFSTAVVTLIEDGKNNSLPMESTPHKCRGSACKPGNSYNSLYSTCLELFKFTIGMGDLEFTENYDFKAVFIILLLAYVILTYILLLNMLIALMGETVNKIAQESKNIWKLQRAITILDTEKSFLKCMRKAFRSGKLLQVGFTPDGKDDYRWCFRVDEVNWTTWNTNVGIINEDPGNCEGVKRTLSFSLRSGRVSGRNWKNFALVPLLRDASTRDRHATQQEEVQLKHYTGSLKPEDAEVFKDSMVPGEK

For `CC(C)(C)c1ccc(/C=C/C(=O)Nc2ccc3c(c2)OCCO3)cc1` [AMG9810], in data set [1], the “initial response to capsaicin as ratio of antagonist to agonist is raised” value is reported as “decrease in the initial response to capsaicin”.

On to `CC(C)(C)c1ccc(NC(=O)N2CCN(c3ncccc3Cl)CC2)cc1` [BCTC], for which the “suitability of antagonist combined with capsaicin to give the desired properties” value in data set [1] is reported as “appropriate ratios of antagonist to agonist exist; also recorded: give the desired properties”.

Take `C=C(C)[C@]12C[C@@H](C)[C@@]34O[C@](Cc5ccccc5)(O[C@@H]1[C@@H]3C=C(COC(=O)Cc1cc(I)c(O)c(OC)c1)C[C@]1(O)C(=O)C(C)=C[C@@H]41)O2` [Iodo-RTX]: the “suitability of antagonist combined with capsaicin to give the desired properties” value in data set [1] (criterion: maximal response to agonist decreased by not more than 20%, response reduced by at least 80% later, FIGS. 2 and 3) is recorded as “give the desired properties”; in data set [1] (criterion: maximal response to agonist decreased by not more than 20%, response reduced by at least 80% later, FIGS. 2 and 3, listed as IodoRTX) it was “appropriate ratios of antagonist to agonist exist”.

With `COc1cc(CNC(=O)CCCC/C=C/C(C)C)ccc1O` [capsaicin, trans-8-methyl-N-vanillyl-6-nonenamide], in data set [1] (CHO cells expressing TRPV1, FIGS. 2A-2E), the “intracellular calcium response to agonist” value is given as “persistent elevation of intracellular calcium”. This molecule displayed a maximally effective dose in data set [1] (fura-2 AM loaded CHO-rTRPV1 cells) of 300 nM. Besides, the proper inflammation result in the data set on subjects (at 0.90% concentration, small population of individuals) is “does not achieve proper inflammation”; in the data set with subjects (at 1.45% concentration), “all subjects achieve proper inflammation”. In the data set with subjects (concentration in spray), the “most potent level that can be delivered without potential hazards” value is given as 1.45%.

As to `Oc1cc2c(cc1O)CN(C(=S)NCCc1ccc(Cl)cc1)CCC2` [capsazepine], the “initial response to capsaicin as ratio of antagonist to agonist is raised” value in data set [1] (FIG. 2D and FIG. 2E) is “decrease in the initial response to capsaicin”.

(Values after patent publication US9277748B2, “Agonist/antagonist compositions and methods of use” (The United States of America, as represented by the …, priority 2010, dated 2016).)
